Measured values taken from patent publication US8338624B2, “Isoflavone derivatives and uses thereof” (Yeda Research and Development Co., Ltd., priority 2007, dated 2012).
Residues, ends and D or L forms follow the SMILES beside them. *: point of attachment. Cbz = O=C(OCc1ccccc1)*; CH2F = FC*

Legend:
[1] = test system: 320DM human colon cancer cells; assay: DNA synthesis by [3H]-thymidine incorporation, 320DM cells; format: cell-based; conditions: for effect on DNA synthesis / growth: 30 to 3000 nM
Experimental: (§1) Cells were cultured in MEM supplemented with 10% FCS and antibiotics. Cells were grown to subconfluence and then treated with various hormones or agents as described by Somjen et al. (Somjen et al., 1998). The cells were characterized in terms of expression of mRNAs for estrogen […] by real time PCR, and the results are summarized in Table 1. N87, 320DM and H295R cells expressed mRNAs for both ERs. The ratio of ERα to ERβ was 1:8.5, 1:30 and 1:1.8 in N87, 320DM and H295R cells, respectively. Ovarian A2780 and prostate C4-24 cells expressed mainly mRNA for ERβ, and the ratio of ERβ to ERα was 300:1 and 70:1, respectively. MLS ovarian cells expressed mRNA only for ERβ. The ratio of ERα to ERβ in T47D cells has been reported to be 9:1.
[^3H]-Thymidine incorporation into DNA was used for the assessment of the various effects (proliferative or inhibitory) of various isoflavones, isoflavone derivatives and known cytotoxic drugs in the above-mentioned cells. Cells were grown until subconfluence using conditions described in Somjen et al. […] At the end of incubation, [^3H]-thymidine was added for two hours. Cells were then treated with 10% ice-cold trichloroacetic (TCA) for 5 min and washed twice with 5% TCA and then with cold ethanol. The cellular layer was dissolved in 0.3 ml of 0.3 M NaOH, aliquots were taken for counting radioactivity, and [^3H]-thymidine incorporation into DNA was calculated.

[2] = test system: H295R adrenocarcinoma cells; assay: DNA synthesis by [3H]-thymidine incorporation, H295R cells; format: cell-based, human; set-up: stimulation of DNA synthesis: concentration or dose not given beside the values; conditions: for inhibition at 3 µM: Homo sapiens, NCI-H295R, read-out: inhibition of DNA synthesis / growth
Experimental: as §1
(§2) [^3H]-Thymidine incorporation into DNA was used for the assessment of the various effects (proliferative or inhibitory) of various isoflavones, isoflavone derivatives and known cytotoxic drugs in the above-mentioned cells. Cells were grown until subconfluence using conditions described in Somjen et al. (Somjen et al., 1998) and then treated with various agents for 24 or 48 h as indicated. At the end of incubation, [^3H]-thymidine was added for two hours. Cells were then treated with 10% ice-cold trichloroacetic (TCA) for 5 min and washed twice with 5% TCA and then with cold ethanol. The cellular layer was dissolved in 0.3 ml of 0.3 M NaOH, aliquots were taken for counting radioactivity, and [^3H]-thymidine incorporation into DNA was calculated.

[3] = test system: human prostate C4-2B cancer cells; assay: DNA synthesis by [3H]-thymidine incorporation, C4-2B cells; format: cell-based
Experimental: as §1, §2

[4] = test system: Human umbilical vascular smooth muscle cells (VSMC); assay: DNA synthesis by [3H]-thymidine incorporation, normal VSMC; format: cell-based; conditions: for effect on DNA synthesis: at 300 nM
Experimental: Human umbilical vascular smooth muscle cells (VSMC) sensitive to estrogen, were grown in culture as described above, and used only at passages 1-3, when expression of smooth muscle actin was clearly demonstrable (Somjen et al. 2000). The ratio of the expression of mRNA for ERα to ERβ was 2.7:1.
as §2

[5] = test system: N87 gastric carcinoma cells; assay: DNA synthesis by [3H]-thymidine incorporation, N87 cells; format: cell-based, human
Experimental: as §1, §2

[6] = test system: T47D mammary cancer cells; assay: DNA synthesis by [3H]-thymidine incorporation, T47D cells; format: cell-based, human; conditions: at 10 μM
Experimental: as §1, §2

[7] = test system: A2780 ovarian cancer cells; assay: DNA synthesis by [3H]-thymidine incorporation, A2780 cells; format: cell-based, human; conditions: for inhibition at 25 µM: read-out: inhibition of cell proliferation
Experimental: as §1, §2

ERβ compared to ERα = conditions: transfected cells; cited from earlier work
MLS ovarian cancer cells = assay: DNA synthesis by [3H]-thymidine incorporation, MLS cells; format: cell-based, human
Experimental: as §1, §2

MLS ovarian xenografts = MLS ovarian xenografts in nude mice; format: in vivo; conditions: daunomycin iv 200 μg/mouse every other day
Description: Female CD1 nude mice (8-week old, ˜30 g) were housed and handled with free access to food and water in the animal facility according to the guidelines (1996) of the Institutional Animal Care and Use Committee of the Weizmann Institute of Science, Rehovot, Israel.
Thirty female nude mice (8 weeks old) were inoculated sub-cutaneously (sc) with MLS ovarian carcinoma cells (1.5×10^6/mouse). Ten days later, when the tumors were palpable, the mice were randomly divided into 3 groups (8-10 mice/group). The mice in each group were iv injected every other day either with a vehicle (Neowater, a solubilization enhancer, 0.1 ml), daunomycin dissolved in Neowater (200 μg/mouse in 0.1 ml vehicle, total dose during treatment 1 mg/mouse), or compound 9 dissolved in Neowater (400 μg/mouse in 0.1 ml vehicle, total dose during treatment 2 mg/mouse). During treatment, body weight was recorded to monitor toxicity of the treatment, and the tumors were measured with an external caliper. Tumor volume was calculated using the formula length×width×height×π/6. Statistical significance was assessed using student's t test, and differences were considered significant at p<0.05.

[8] = ICI 182780 (1.1 μM) + E2 0.3 μM
[9] = estradiol 30 nM + 1.1 μM ICI 182780
[10] = apoptosis inhibitor at 25 μM alone

## COc1ccc(-c2c(CCCC(=O)O)oc3cc(O)cc(O)c3c2=O)cc1 [Compound 4, 2-(3-carboxypropyl)-7,5-dihydroxy-4′-methoxyisoflavone]
[1]
  effect on DNA synthesis / growth: stimulated the DNA synthesis
[2]; concentration not given
  stimulation of DNA synthesis: 273%
[3]; at 300 nM
  effect on DNA synthesis: stimulated DNA synthesis
[4]
  effect on DNA synthesis: stimulated DNA synthesis
[5]; at 300 nM
  stimulation of DNA synthesis: 50%
[6]
  effect on DNA synthesis: had no effect

## O=C(O)COc1ccc2c(=O)c(-c3ccc(O)cc3)coc2c1 [Compound 6, 7-(O)-Carboxymethyl daidzein, reference compound]
[3]; at 300 nM
  effect on DNA synthesis: stimulated DNA synthesis
[4]
  effect on DNA synthesis: stimulated DNA synthesis
[6]
  effect on DNA synthesis: stimulated DNA synthesis

## O=C(O)CCCc1oc2cc(O)cc(O)c2c(=O)c1-c1ccc(O)cc1 [Compound 5, 2-(3-Carboxypropyl)-5,7,4′-trihydroxyisoflavone]
[1]
  effect on DNA synthesis / growth: significantly stimulated [^3H]-thymidine incorporation into DNA
[3]; at 300 nM
  effect on DNA synthesis: stimulated DNA synthesis

## O=c1c(-c2ccc(O)cc2)coc2cc(O)cc(O)c12 [Compound 2, Genistein, reference compound]
[1]; 30 to 300 nM
  effect on [3H]-thymidine incorporation into DNA: significantly stimulated [^3H]-thymidine incorporation into DNA
[7]; Homo sapiens
  inhibition at 25 µM: 30 to 40%
[3]; at 3 μM
  effect on DNA synthesis: stimulated DNA synthesis significantly
ERβ compared to ERα
  sensitivity for activating transcription via ERβ compared to ERα: 100 fold

## COc1ccc(-c2c(CCCC(=O)NCCCCCCNC(=O)OC(C)(C)C)oc3cc(O)cc(O)c3c2=O)cc1 [Compound 7, 2-[3-carboxy-(6-tert-butoxycarbonylamino)-hexylamino-propyl]-7,5-dihydroxy-4′-methoxyisoflavone]
[1]
  effect on DNA synthesis / growth: inhibited significantly DNA synthesis
[1]; compound at 3 μM
  DNA synthesis, ratio experimental/control (E/C): 0.22 ± 0.15
MLS ovarian cancer cells; compound at 3 μM
  DNA synthesis, ratio experimental/control (E/C): 0.05 ± 0.23
[7]; Homo sapiens, at 3 μM, read-out: inhibition of DNA synthesis / growth
  inhibition at 3 µM: 35%
[7]; compound at 3 μM
  DNA synthesis, ratio experimental/control (E/C): 0.64 ± 0.16
[2]; at 3 μM
  inhibition at 3 µM: 40 to 45%
[2]; compound at 3 μM
  DNA synthesis, ratio experimental/control (E/C): 0.55 ± 0.03
[3]; Homo sapiens, at 30 nM
  inhibition at 0.03 µM: 10%
[3]; Homo sapiens, at 300 nM
  inhibition at 0.3 µM: 50%
[3]; compound at 0.3 μM
  DNA synthesis, ratio experimental/control (E/C): 0.41 ± 0.27
[4]; Homo sapiens, at 3.3 μM
  inhibition at 3.3 µM: 26%
[4]; compound at 3 μM
  DNA synthesis, ratio experimental/control (E/C): 0.74 ± 0.05
[5]; Homo sapiens, at 300 nM, read-out: inhibition of cell growth
  inhibition at 0.3 µM: 40%

## COc1ccc(-c2coc3cc(O)cc(O)c3c2=O)cc1 [Compound 1, Biochanin A, reference compound]
[1]
  effect on DNA synthesis / growth: had no effect on growth
[2]; at 3 μM
  effect on DNA synthesis: had no effect on DNA synthesis
[3]; at 3 μM
  effect on DNA synthesis: stimulated DNA synthesis significantly
[4]
  effect on DNA synthesis: stimulated DNA synthesis
[5]; at 3 μM
  effect on DNA synthesis: had no effect
[6]
  effect on DNA synthesis: stimulated DNA synthesis

## COc1cccc2c1C(=O)c1c(O)c3c(c(O)c1C2=O)C[C@@](O)(C(C)=O)C[C@@H]3O[C@H]1C[C@H](N)[C@H](O)[C@H](C)O1 [daunomycin, reference compound]
[2]; at 3 μM
  inhibition at 3 µM: 75%
MLS ovarian xenografts
  reduction in mean body weight: 15%
MLS ovarian xenografts; 8-10 mice/group
  deaths caused: 2 mice

## N.N.O=C([O-])C1(C(=O)[O-])CCC1.[Pt+2] [carboplatin, reference compound]
[7]; at 3 μM
  inhibition of DNA synthesis / growth: 57%

## C[C@]12CC[C@@H]3c4ccc(O)cc4CC[C@H]3[C@@H]1CC[C@@H]2O [Compound E2, estradiol 17β, reference compound]
[1]; E2 30 nM alone (Table 3)
  DNA synthesis, ratio experimental/control (E/C): 2.06 ± 0.09
[1]; E2 0.3 μM alone
  DNA synthesis, ratio experimental/control (E/C): 1.87 ± 0.18
[1]; E2 at 30 nM (Table 2)
  DNA synthesis, ratio experimental/control (E/C): 1.64 ± 0.13
[1]; Homo sapiens, estradiol 30 nM, read-out: [3H]-thymidine incorporation (% of control)
  activity at 0.03 µM: 206%
MLS ovarian cancer cells; E2 30 nM alone (Table 3)
  DNA synthesis, ratio experimental/control (E/C): 2.35 ± 0.06
MLS ovarian cancer cells; E2 0.3 μM alone
  DNA synthesis, ratio experimental/control (E/C): 1.70 ± 0.15
MLS ovarian cancer cells; E2 at 30 nM (Table 2)
  DNA synthesis, ratio experimental/control (E/C): 1.39 ± 0.03
MLS ovarian cancer cells; Homo sapiens, estradiol 30 nM, read-out: DNA synthesis (% of control)
  activity at 0.03 µM: 235%
MLS ovarian cancer cells; Homo sapiens, estradiol 0.3 μM, read-out: DNA synthesis (% of control)
  activity at 0.3 µM: 187%
[7]; E2 at 30 nM
  DNA synthesis, ratio experimental/control (E/C): 1.42 ± 0.10
[2]; E2 at 30 nM
  DNA synthesis, ratio experimental/control (E/C): 2.10 + .10
[3]; E2 at 30 nM
  DNA synthesis, ratio experimental/control (E/C): 2.10 ± 0.10
[4]; E2 at 30 nM
  DNA synthesis, ratio experimental/control (E/C): 0.55 ± 0.12

## C[C@]12CC[C@@H]3c4ccc(O)cc4C[C@@H](CCCCCCCCC[S+]([O-])CCCC(F)(F)C(F)(F)F)[C@H]3[C@@H]1CC[C@@H]2O (stereo partly shown) [ICI 182780, reference compound]
[1]; ICI 182780 1.1 μM alone
  DNA synthesis, ratio experimental/control (E/C): 0.63 ± 0.08
[1]; ICI 182780 (1.1 μM) + E2 30 nM
  DNA synthesis, ratio experimental/control (E/C): 0.63 ± 0.08
[1]; [8]
  DNA synthesis, ratio experimental/control (E/C): 0.92 ± 0.18
[1]; [9]
  DNA synthesis (% of control): 63%
[1]; estradiol 300 nM + 1.1 μM ICI 182780
  DNA synthesis (% of control): 92%
MLS ovarian cancer cells; ICI 182780 1.1 μM alone
  DNA synthesis, ratio experimental/control (E/C): 0.52 ± 0.12
MLS ovarian cancer cells; ICI 182780 (1.1 μM) + E2 30 nM
  DNA synthesis, ratio experimental/control (E/C): 0.53 ± 0.11
MLS ovarian cancer cells; [8]
  DNA synthesis, ratio experimental/control (E/C): 0.95 ± 0.08
MLS ovarian cancer cells; [9]
  DNA synthesis (% of control): 53%
MLS ovarian cancer cells; estradiol 0.3 μM + 1.1 μM ICI 182780
  DNA synthesis (% of control): 95%

## COC(=O)C[C@H](NC(=O)[C@H](C)NC(=O)[C@@H](NC(=O)OCc1ccccc1)C(C)C)C(=O)CF [Z-VADFK, Z-VAD-FMK Me ester, reference compound] (Cbz-Val-Ala-Asp(OMe)-CH2F)
[1]; Z-VADFK 25 μM alone
  DNA synthesis, ratio experimental/control (E/C): 1.11 ± 0.08
[1]; [10]
  effect on DNA synthesis: had no effect on DNA synthesis
MLS ovarian cancer cells; Z-VADFK 25 μM alone
  DNA synthesis, ratio experimental/control (E/C): 1.06 ± 0.1
MLS ovarian cancer cells; [10]
  effect on DNA synthesis: had no effect on DNA synthesis

## O=c1c(-c2ccc(O)cc2)coc2cc(O)ccc12 [Compound 3, Daidzein, reference compound]
[7]; Homo sapiens
  inhibition at 25 µM: 30 to 40%
[3]; at 3 μM
  effect on DNA synthesis: stimulated DNA synthesis significantly
[4]
  effect on DNA synthesis: stimulated DNA synthesis
[6]
  effect on DNA synthesis: stimulated DNA synthesis
ERβ compared to ERα
  sensitivity for activating transcription via ERβ compared to ERα: 100 fold
